What was measured:
[1] = tested on: fish reared within the water tank for fish; assay type: in vivo; details: for effect on the fish: in vivo; for damage or injury of the fish caused by the pollution: small amount
Excerpt: This is because the oil keeps floating on a water surface thereof.
In this context, the present inventor has confirmed according to tests that the conventional automatic water quality surveillance apparatus with fish cannot sense the oil and/or the mold odor substances based on abnormal behavior of the fish.

cyprinodonts = tested on: cyprinodonts; design: species or system Oryzias latipes; details: in vivo
Excerpt: Referring to FIG. 10, it is clear that the cyprinodonts 4e take unique action based on the kind of toxic substances.
In order to solve the problems, the present inventor has further devised a method including: putting a plurality (for example, 20) of cyprinodonts 4e into the water tank for fish 4d; photographing the cyprinodonts 4e by means of the CCD video camera 1 in a direction of bird's-eye to output data; and analyzing the data with the image processing device 1b.
In order to solve the problem of photographing one cyprinodont from the side wall, the inventor has performed: changing the side photographing system shown in FIG. 10 to the bird's-eye photographing system shown in FIG. 11; using the more (about 20) cyprinodonts; and developing new algorithm. In this way, the present inventor has solved the problem in recent years.
Furthermore, the present inventor has developed algorithm of issuing an alarm in this state.
When about 2 [ppm] concentration of potassium cyanide is contained in the raw water, the cyprinodonts 4e swim weakly toward a water flow to be carried away, thereby being latched by the capture net 4f.

| Structure (SMILES) | effect on the fish [1] | damage or injury of the fish caused by the pollution [1] | organ system of cyprinodonts damaged (cyprinodonts) | unique action taken by cyprinodonts (cyprinodonts) |
| --- | --- | --- | --- | --- |
| CC1(C)[C@@H]2CC[C@@]1(C)[C@](C)(O)C2 [2-MIB, 2-methylisoborneol] | hardly affect the fish | neither to be damaged nor to be injured |  |  |
| COP(=S)(OC)Oc1ccc([N+](=O)[O-])c(C)c1 [Fenitrothion] |  |  | damages nervous systems | madly-rushing action |
| CC1CCCC2(C)CCCCC12O (stereo not drawn) [geosmin] | hardly affect the fish | neither to be damaged nor to be injured |  |  |

Reference: US10048243B2, “Automatic water quality surveillance apparatus” (priority 2016, dated 2018)
